Reference: patent US20070059359A1, “Immediate-release and high-drug-load pharmaceutical formulations of non-micronised (4-chlorophenyl)[4-(4-pyridylmethyl)phthalazin-1-yl] and salts thereof” (priority 2005, published 2007)

Columns and labels:
[1] = Hazard classification, internal workspace limit; conditions: classified as being hazardous
VEGFR kinases = conditions: not dependent on a specific ligand; cited from earlier work

Row | internal workspace limit [1] [mg/m^3] | SMILES | inhibition of VEGFR kinases (VEGFR kinases)
1 | 0.1 | Clc1ccc(Nc2nnc(Cc3ccncc3)c3ccccc23)cc1 [pynasunate, (4-chlorophenyl)[4-(4-pyridylmethyl)-phthalazin-1-yl]ammonium hydrogen succinate] | –
2 | – | Clc1ccc(Nc2nnc(Cc3ccncc3)c3ccccc23)cc1 [(4-chlorophenyl)[4-(4-pyridylmethyl)-phthalazin-1-yl]] | inhibitor of all three VEGFR kinases
